Data: PubChem BioAssay AID332 (DTP/NCI, 2004)
Several values for one entry are separate records, joined by “and”; a condition that tells them apart may be missing. Equal entries are not always repeated. Inconclusive results are not listed.

Tested on: mice, ADJ-PC-20 plasma cell tumor sc, T/C %
Assay: NCI In Vivo Anticancer Drug Screen. Data for tumor model ADJ-PC-20 Plasma Cell (subcutaneous) in unknown mice
Settings: endpoint: mean tumor weight, higher = larger tumour
Protocol: The antitumor activity of compounds was measured in mice bearing transplantable tumors. Survival or tumor size were measured and the results are expressed as the measurement made in the treated group (T) divided by the measurement made in the vehicle treated control group (C). The tumor model used in this assay is ADJ-PC-20 Plasma Cell (subcutaneous) in unknown mice

[1] = dose: 0.5 mg/kg/injection, schedule: Q01DX010 (ip), vehicle: carboxymethylcellulose (CMC)
[2] = dose: 1.25 mg/kg/injection, schedule: Q01DX010 (ip), vehicle: saline
[3] = dose: 0.63 mg/kg/injection, schedule: Q01DX010 (ip), vehicle: carboxymethylcellulose (CMC)
[4] = dose: 12.5 mg/kg/injection, schedule: Q01DX010 (ip), vehicle: carboxymethylcellulose (CMC)
[5] = dose: 25.0 mg/kg/injection, schedule: Q01DX010 (ip), vehicle: carboxymethylcellulose (CMC)
[6] = dose: 50.0 mg/kg/injection, schedule: Q01DX010 (ip), vehicle: carboxymethylcellulose (CMC)
[7] = dose: 31.25 mg/kg/injection, schedule: Q01DX010 (sc), vehicle: steriod suspending solution
[8] = dose: 125.0 mg/kg/injection, schedule: Q01DX010 (sc), vehicle: steriod suspending solution

CCN(CC)CCNc1ccc(C)c2sc3ccccc3c(=O)c12
T/C (dose: 0.78 mg/kg/injection, schedule: Q01DX010 (ip), vehicle: methylcellulose (MC)): 150 % of control
T/C (dose: 1.56 mg/kg/injection, schedule: Q01DX010 (ip), vehicle: methylcellulose (MC)): 194 % of control
T/C (dose: 6.25 mg/kg/injection, schedule: Q01DX010 (ip), vehicle: methylcellulose (MC)): 27 % of control

CC(=O)O[C@]1(C(C)=O)CC[C@H]2[C@@H]3C[C@H](C)C4=CC(=O)C=C[C@]4(C)[C@@]3(F)[C@@H](O)C[C@@]21C
T/C (dose: 5.0 mg/kg/injection, schedule: Q01DX010 (sc), vehicle: steriod suspending solution): 82 % of control
T/C (dose: 10.0 mg/kg/injection, schedule: Q01DX010 (sc), vehicle: steriod suspending solution): 55 % of control
T/C (dose: 20.0 mg/kg/injection, schedule: Q01DX010 (sc), vehicle: steriod suspending solution): 74 % of control
T/C (dose: 40.0 mg/kg/injection, schedule: Q01DX010 (sc), vehicle: steriod suspending solution): 73 % of control
T/C (dose: 80.0 mg/kg/injection, schedule: Q01DX010 (sc), vehicle: steriod suspending solution): 33 % of control

C[C@]12C=CC(=O)C=C1CC[C@@H]1[C@@H]2C(=O)C[C@@]2(C)[C@H]1CC[C@]2(O)C(=O)CO
T/C (dose: 6.3 mg/kg/injection, schedule: Q01DX010 (sc), vehicle: steriod suspending solution): 107 % of control
T/C (dose: 12.5 mg/kg/injection, schedule: Q01DX010 (sc), vehicle: steriod suspending solution): 51 % of control
T/C (dose: 100.0 mg/kg/injection, schedule: Q01DX010 (sc), vehicle: steriod suspending solution): 14 % of control

Nc1nc(=S)c2[nH]cnc2[nH]1
T/C (dose: 0.12 mg/kg/injection, schedule: Q01DX010 (ip), vehicle: carboxymethylcellulose (CMC)): 112 % of control
T/C (dose: 0.25 mg/kg/injection, schedule: Q01DX010 (ip), vehicle: carboxymethylcellulose (CMC)): 39 % of control and 62 % of control
T/C [1]: 9 % of control
T/C (dose: 62.0 micrograms/kg/injection, schedule: Q01DX010 (ip), vehicle: carboxymethylcellulose (CMC)): 52 % of control
T/C (dose: 125.0 micrograms/kg/injection, schedule: Q01DX010 (ip), vehicle: carboxymethylcellulose (CMC)): 23 % of control
T/C (dose: 250.0 micrograms/kg/injection, schedule: Q01DX010 (ip), vehicle: carboxymethylcellulose (CMC)): 14 % of control

N=[N+]=CC(=O)OCC(N)C(=O)O (centres undefined)
T/C [2]: 120 % of control
T/C (dose: 5.0 mg/kg/injection, schedule: Q01DX010 (ip), vehicle: saline): 93 % of control

Nc1ncnc2c1ccn2C1OC(CO)C(O)C1O (centres undefined)
T/C [3]: 94 % of control

O=c1[nH]cc(F)c(=O)[nH]1
T/C (dose: 1.56 mg/kg/injection, schedule: Q01DX010 (ip), vehicle: saline): 173 % of control
T/C (dose: 6.25 mg/kg/injection, schedule: Q01DX010 (ip), vehicle: saline): 35 % of control
T/C (dose: 12.5 mg/kg/injection, schedule: Q01DX010 (ip), vehicle: saline): 20 % of control

CCCCNc1ncnc2c1cnn2C
T/C (dose: 3.1 mg/kg/injection, schedule: Q01DX010 (ip), vehicle: carboxymethylcellulose (CMC)): 94 % of control
T/C [4]: 122 % of control
T/C [5]: 96 % of control
T/C [6]: 109 % of control

O=C(Nc1ccc(C2=NCCN2)cc1)c1ccc(C(=O)Nc2ccc(C3=NCCN3)cc2)c(Cl)c1
T/C (dose: 1.62 mg/kg/injection, schedule: Q01DX010 (ip), vehicle: water): 108 % of control
T/C (dose: 3.12 mg/kg/injection, schedule: Q01DX010 (ip), vehicle: water): 152 % of control
T/C (dose: 6.25 mg/kg/injection, schedule: Q01DX010 (ip), vehicle: water): 94 % of control
T/C (dose: 6.3 mg/kg/injection, schedule: Q01DX010 (ip), vehicle: water): 64 % of control
T/C (dose: 7.5 mg/kg/injection, schedule: Q01DX010 (ip), vehicle: water): 81 % of control and 83 % of control
T/C (dose: 12.5 mg/kg/injection, schedule: Q01DX010 (ip), vehicle: water): 121 % of control
T/C (dose: 30.0 mg/kg/injection, schedule: Q01DX010 (ip), vehicle: water): 55 % of control and 66 % of control

C[C@]12CCC(=O)C=C1CC[C@@H]1[C@@H]2CC[C@@]2(C)[C@H]1CC[C@]2(C)O
T/C [7]: 113 % of control
T/C (dose: 62.5 mg/kg/injection, schedule: Q01DX010 (sc), vehicle: steriod suspending solution): 114 % of control
T/C [8]: 99 % of control

Nc1nc(SCc2ccccc2)c2[nH]cnc2n1
T/C (dose: 0.3 mg/kg/injection, schedule: Q01DX010 (ip), vehicle: carboxymethylcellulose (CMC)): 94 % of control
T/C (dose: 1.2 mg/kg/injection, schedule: Q01DX010 (ip), vehicle: carboxymethylcellulose (CMC)): 81 % of control
T/C (dose: 2.4 mg/kg/injection, schedule: Q01DX010 (ip), vehicle: carboxymethylcellulose (CMC)): 119 % of control
T/C (dose: 4.7 mg/kg/injection, schedule: Q01DX010 (ip), vehicle: carboxymethylcellulose (CMC)): 9 % of control

OCC1OC(n2cnc3c(=S)nc[nH]c32)C(O)C1O (centres undefined)
T/C [1]: 87 % of control
T/C (dose: 1.0 mg/kg/injection, schedule: Q01DX010 (ip), vehicle: carboxymethylcellulose (CMC)): 51 % of control
T/C (dose: 2.0 mg/kg/injection, schedule: Q01DX010 (ip), vehicle: carboxymethylcellulose (CMC)): 25 % of control
T/C (dose: 4.0 mg/kg/injection, schedule: Q01DX010 (ip), vehicle: carboxymethylcellulose (CMC)): 2 % of control
T/C (dose: 8.0 mg/kg/injection, schedule: Q01DX010 (ip), vehicle: carboxymethylcellulose (CMC)): 22 % of control

NC(=O)c1ccc(N)nc1
T/C (dose: 0.63 mg/kg/injection, schedule: Q01DX010 (ip), vehicle: saline): 69 % of control
T/C [2]: 52 % of control
T/C (dose: 1.25 mg/kg/injection, schedule: Q01DX010 (ip), vehicle: water): 35 % of control
T/C (dose: 2.5 mg/kg/injection, schedule: Q01DX010 (ip), vehicle: water): 18 % of control

CN(Cc1cnc2nc(N)nc(N)c2n1)c1c(Cl)cc(C(=O)NC(CCC(=O)O)C(=O)O)cc1Cl (centres undefined)
T/C (dose: 6.25 mg/kg/injection, schedule: Q01DX010 (ip), vehicle: carboxymethylcellulose (CMC)): 93 % of control
T/C [4]: 112 % of control
T/C [5]: 79 % of control and 97 % of control
T/C [6]: 71 % of control

CCOC(=O)NP(=O)(N1CC1(C)C)N1CC1(C)C (centres undefined)
T/C (dose: 125.0 mg/kg/injection, schedule: Q01DX010 (ip), vehicle: carboxymethylcellulose (CMC)): 68 % of control
T/C (dose: 250.0 mg/kg/injection, schedule: Q01DX010 (ip), vehicle: carboxymethylcellulose (CMC)): 20 % of control

C[C@]12CCC(=O)C=C1CC[C@@H]1[C@@H]2C(=O)C[C@@]2(C)[C@H]1CC[C@]2(O)C(=O)CO
T/C [7]: 7 % of control
T/C [8]: 11 % of control

O=c1cnn(C2OC(CO)C(O)C2O)c(=O)[nH]1 (centres undefined)
T/C (dose: 31.0 mg/kg/injection, schedule: Q01DX011 (ip), vehicle: water): 51 % of control
T/C (dose: 62.5 mg/kg/injection, schedule: Q01DX011 (ip), vehicle: water): 52 % of control
T/C (dose: 125.0 mg/kg/injection, schedule: Q01DX010 (ip), vehicle: water): 41 % of control
T/C (dose: 125.0 mg/kg/injection, schedule: Q01DX011 (ip), vehicle: water): 69 % of control
T/C (dose: 250.0 mg/kg/injection, schedule: Q01DX010 (ip), vehicle: water): 49 % of control
T/C (dose: 250.0 mg/kg/injection, schedule: Q01DX011 (ip), vehicle: water): 30 % of control

NC(Cc1ccc(N(CCCl)CCCl)cc1)C(=O)O (centres undefined)
T/C (dose: 0.08 mg/kg/injection, schedule: Q01DX010 (ip), vehicle: carboxymethylcellulose (CMC)): 99 % of control
T/C (dose: 0.16 mg/kg/injection, schedule: Q01DX010 (ip), vehicle: carboxymethylcellulose (CMC)): 107 % of control
T/C [3]: 79 % of control
T/C (dose: 1.25 mg/kg/injection, schedule: Q01DX010 (ip), vehicle: carboxymethylcellulose (CMC)): 9 % of control

CC[C@]1(O)C[C@H]2CN(CCc3c([nH]c4ccccc34)[C@@](C(=O)OC)(c3cc4c(cc3OC)N(C=O)[C@H]3[C@@](O)(C(=O)OC)[C@H](OC(C)=O)[C@]5(CC)C=CCN6CC[C@]43[C@@H]65)C2)C1
T/C (dose: 0.12 mg/kg/injection, schedule: Q01DX010 (ip), vehicle: water): 109 % of control
T/C (dose: 0.5 mg/kg/injection, schedule: Q01DX010 (ip), vehicle: water): 105 % of control
T/C (dose: 31.0 micrograms/kg/injection, schedule: Q01DX010 (ip), vehicle: water): 97 % of control
T/C (dose: 62.0 micrograms/kg/injection, schedule: Q01DX010 (ip), vehicle: water): 95 % of control
T/C (dose: 125.0 micrograms/kg/injection, schedule: Q01DX010 (ip), vehicle: water): 90 % of control
T/C (dose: 250.0 micrograms/kg/injection, schedule: Q01DX010 (ip), vehicle: water): 63 % of control
